Test results taken from publication PMC2717937 (Journal of Experimental & Clinical Cancer Research : CR, 2009).
Counter-ions that a name gives are not always drawn. Like-named read-outs stand apart in the source and are kept apart here.

Key:
[1] = system: ABCB1 in CD56+ lymphocytes; conditions: healthy volunteers, tariquidar 2 mg/kg i.v. or ≥ 200 mg orally; cited from earlier work
drug efflux = system: drug efflux; set-up: method as in PMID 11212278; conditions: cited from earlier work
in vivo [2] = conditions: Balb/C, mouse, plasma, po, 50 mg/kg
in vivo [3] = conditions: Balb/C, mouse, brain, po, 50 mg/kg
[4] = imatinib 50 mg/kg oral, vehicle 30 min before
[5] = vehicle 30 min before, listed as Imatinib alone
[6] = oral; cited from earlier work
in vivo [7] = conditions: Balb/C, mouse, liver, po, 50 mg/kg
[8] = imatinib 50 mg/kg oral, vehicle 30 min before; remark: listed apart in the source
[9] = elacridar with imatinib 12.5 mg/kg vs imatinib alone; cited from earlier work
[10] = listed as imatinib plus vehicle

## COc1cc2c(cc1OC)CN(CCc1ccc(NC(=O)c3cc(OC)c(OC)cc3NC(=O)c3cnc4ccccc4c3)cc1)CC2 [Tariquidar]
[1]
  Duration of 100% inhibition of ABCB1 in CD56+ lymphocytes: over 24 hours
  Inhibition of ABCB1 in CD56+ lymphocytes: 100%
Drug efflux
  Persistence of inhibitory effect on drug efflux in vitro: persists for over two hours

## Cc1ccc(NC(=O)c2ccc(CN3CCN(C)CC3)cc2)cc1Nc1nccc(-c2cccnc2)n1 [Imatinib, Imatinib mesylate]
In vivo [2]
  Tmax: 10.2 min
In vivo [2]; Plasma AUC0–24, imatinib 50 mg/kg oral, vehicle 30 min before
  AUC(0-t): 12200 ng·h/mL
In vivo [2]; Plasma Cmax, imatinib 50 mg/kg oral gavage, vehicle 30 min before, mean, n = 3 per time point
  Cmax: 5710 ng/mL
In vivo [3]
  Tmax: 120 min
[4]
  Brain AUC0–4: 574.23 ng·h/g
[4]; listed as Imatinib alone
  Brain Cmax (corrected for brain vascular space): 194.7 ng/g
[4]; [10]
  Brain Cmax (corrected for brain vascular space): 195 ng/g
[5]; imatinib 50 mg/kg oral gavage, mean, n = 3 per time point
  Plasma Cmax: 5,710.5 ng/mL
[5]; imatinib 50 mg/kg oral
  Plasma AUC0–24: 12,167.5 hr*ng/mL
[6]
  Bioavailability: approximately 98%
In vivo [7]
  Tmax: 15 min
[8]
  Liver AUC0–24: 68,330.8 hr*ng/g
  Liver AUC0–24 (text): 68,331 hr*ng/mL
[8]; listed as Imatinib alone
  Liver Cmax: 26,279.7 ng/g
[8]; [10]
  Liver Cmax: 26,280 ng/g

## COc1cc2c(cc1OC)CN(CCc1ccc(NC(=O)c3cccc4c(=O)c5cccc(OC)c5[nH]c34)cc1)CC2 [elacridar]
[9]
  Fold increase in brain-to-plasma concentration ratio of imatinib: 9.3 fold
